In ChEMBL document CHEMBL4219051, “Cyclin-Dependent Kinase 8: A New Hope in Targeted Cancer Therapy?” (J Med Chem, 2018):
pEC50, pIC50: −log10 of the molar value. Each block holds one compound with its values, some of them ahead of it.

How the values were obtained:
[1] = system: SET-2; assay: Antitumor activity against human SET2 cells xenografted in SCID Beige mouse assessed as tumor growth inhibition at 0.16 mg/kg, ip qd measured on day 33 relative to control; format: functional; conditions: SET-2, ip, 792 h, read-out: TGI
[2] = target: T1, Cyclin-dependent kinase 19 (Homo sapiens, UniProt Q9BWU1); assay: Inhibition of CDK19 (unknown origin) in presence of [gamma33P]ATP by radiometric method
T1 sequence (Q9BWU1 whole entry): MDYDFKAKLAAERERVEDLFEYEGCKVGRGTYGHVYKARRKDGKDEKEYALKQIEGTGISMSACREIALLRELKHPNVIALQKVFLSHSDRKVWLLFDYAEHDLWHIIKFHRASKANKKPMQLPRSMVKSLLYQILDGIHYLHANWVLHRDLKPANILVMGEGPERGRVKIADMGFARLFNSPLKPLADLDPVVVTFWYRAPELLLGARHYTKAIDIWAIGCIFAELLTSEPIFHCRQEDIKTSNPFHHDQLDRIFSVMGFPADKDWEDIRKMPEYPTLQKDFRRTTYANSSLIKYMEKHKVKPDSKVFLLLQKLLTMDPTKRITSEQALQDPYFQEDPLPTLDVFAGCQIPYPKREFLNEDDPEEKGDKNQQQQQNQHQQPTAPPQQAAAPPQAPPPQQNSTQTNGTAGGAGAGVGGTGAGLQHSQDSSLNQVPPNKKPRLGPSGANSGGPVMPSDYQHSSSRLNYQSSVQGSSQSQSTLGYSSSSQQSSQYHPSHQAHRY

[3] = target: Rho-associated protein kinase 1 (Homo sapiens, UniProt Q13464); assay: Inhibition of ROCK1 (unknown origin)
[4] = target: Rho-associated protein kinase 2 (Homo sapiens, UniProt O75116); assay: Inhibition of ROCK2 (unknown origin)
Sequence of Rho-associated protein kinase 2 (O75116 whole entry): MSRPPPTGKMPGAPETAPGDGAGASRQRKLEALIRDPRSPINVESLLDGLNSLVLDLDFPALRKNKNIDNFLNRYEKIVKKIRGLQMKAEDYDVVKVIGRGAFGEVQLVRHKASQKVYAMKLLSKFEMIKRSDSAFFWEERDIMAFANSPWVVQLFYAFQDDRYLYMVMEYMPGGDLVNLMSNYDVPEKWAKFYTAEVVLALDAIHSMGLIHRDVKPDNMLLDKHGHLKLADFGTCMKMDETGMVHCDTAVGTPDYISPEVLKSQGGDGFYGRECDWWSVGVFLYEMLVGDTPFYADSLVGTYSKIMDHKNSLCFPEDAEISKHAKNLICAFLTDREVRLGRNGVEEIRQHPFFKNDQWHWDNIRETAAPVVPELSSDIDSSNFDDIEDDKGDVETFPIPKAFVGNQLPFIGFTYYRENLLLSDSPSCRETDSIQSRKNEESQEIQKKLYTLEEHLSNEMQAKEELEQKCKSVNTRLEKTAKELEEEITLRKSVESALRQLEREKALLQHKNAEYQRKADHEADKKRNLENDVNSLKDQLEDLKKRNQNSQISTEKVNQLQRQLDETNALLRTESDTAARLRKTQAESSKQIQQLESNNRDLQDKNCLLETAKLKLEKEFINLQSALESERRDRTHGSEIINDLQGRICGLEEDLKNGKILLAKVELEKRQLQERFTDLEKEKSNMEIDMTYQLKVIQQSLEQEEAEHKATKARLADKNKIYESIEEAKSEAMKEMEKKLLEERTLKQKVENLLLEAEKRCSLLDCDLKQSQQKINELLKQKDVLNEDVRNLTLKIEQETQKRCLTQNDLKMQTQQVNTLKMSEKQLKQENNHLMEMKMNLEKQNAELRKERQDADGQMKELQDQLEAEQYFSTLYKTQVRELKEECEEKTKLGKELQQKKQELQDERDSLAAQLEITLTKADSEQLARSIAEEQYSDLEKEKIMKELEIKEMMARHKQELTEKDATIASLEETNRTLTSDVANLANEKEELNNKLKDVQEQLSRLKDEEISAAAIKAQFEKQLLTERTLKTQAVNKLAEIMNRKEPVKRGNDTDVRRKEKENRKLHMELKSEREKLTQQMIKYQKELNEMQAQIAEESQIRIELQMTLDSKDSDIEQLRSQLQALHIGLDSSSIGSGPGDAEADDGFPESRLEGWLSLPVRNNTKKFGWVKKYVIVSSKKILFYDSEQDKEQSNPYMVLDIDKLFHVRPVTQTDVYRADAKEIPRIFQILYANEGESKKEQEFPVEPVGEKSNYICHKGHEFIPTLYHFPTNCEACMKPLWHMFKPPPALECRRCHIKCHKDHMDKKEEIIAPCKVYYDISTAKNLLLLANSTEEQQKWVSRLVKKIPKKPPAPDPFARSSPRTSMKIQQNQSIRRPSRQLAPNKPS

[5] = Growth inhibition of human SKNO1 cells after 10 days by CellTiter-Glo assay; format: functional; conditions: SKNO-1, 240 h
[6] = system: RS4-11; assay: Growth inhibition of human RS4:11 cells after 10 days by CellTiter-Glo assay; format: functional; conditions: RS4-11, 240 h
[7] = system: SET-2; assay: Growth inhibition of human SET2 cells after 10 days by CellTiter-Glo assay; format: functional; conditions: SET-2, 240 h
[8] = system: MOLM-14; assay: Growth inhibition of human MOLM14 cells after 10 days by CellTiter-Glo assay; format: functional; conditions: MOLM-14, 240 h
[9] = system: MV4-11; assay: Growth inhibition of human MV4-11 cells after 10 days by CellTiter-Glo assay; format: functional; conditions: MV4-11, 240 h
[10] = Growth inhibition of human UKE1 cells after 10 days by CellTiter-Glo assay; format: functional; conditions: UKE1, 240 h
[11] = system: MEG-01; assay: Growth inhibition of human MEG01 cells after 10 days by CellTiter-Glo assay; format: functional; conditions: MEG-01, 240 h
[12] = system: TF-1; assay: Growth inhibition of human TF1 cells after 10 days by CellTiter-Glo assay; format: functional; conditions: TF-1, 240 h
[13] = system: HCT-116; assay: Growth inhibition of human HCT116 cells after 7 days by CellTiter-Glo assay; format: functional; conditions: HCT-116, 168 h
[14] = target: T2, CDK8/Cyclin C (Homo sapiens, UniProt P49336); assay: Inhibition of CDK8/Cyclin-C (unknown origin) in presence of [gamma33P]ATP by radiometric method; format: protein-complex assay
T2 sequence (P49336 whole entry): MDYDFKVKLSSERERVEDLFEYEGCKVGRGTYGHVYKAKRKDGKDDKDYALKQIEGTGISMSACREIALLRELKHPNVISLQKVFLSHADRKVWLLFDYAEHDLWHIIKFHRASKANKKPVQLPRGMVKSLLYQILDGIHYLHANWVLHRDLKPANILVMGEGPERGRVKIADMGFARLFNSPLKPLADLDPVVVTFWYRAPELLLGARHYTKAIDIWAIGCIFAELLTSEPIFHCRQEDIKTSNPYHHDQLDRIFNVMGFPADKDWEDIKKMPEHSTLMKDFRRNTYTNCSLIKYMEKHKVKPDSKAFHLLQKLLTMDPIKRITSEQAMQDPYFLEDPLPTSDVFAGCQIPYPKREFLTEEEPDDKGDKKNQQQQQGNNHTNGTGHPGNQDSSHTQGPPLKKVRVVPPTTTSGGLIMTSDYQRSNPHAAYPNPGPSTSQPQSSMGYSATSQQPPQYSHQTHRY
T2 sequence (P24863 whole entry, further chain): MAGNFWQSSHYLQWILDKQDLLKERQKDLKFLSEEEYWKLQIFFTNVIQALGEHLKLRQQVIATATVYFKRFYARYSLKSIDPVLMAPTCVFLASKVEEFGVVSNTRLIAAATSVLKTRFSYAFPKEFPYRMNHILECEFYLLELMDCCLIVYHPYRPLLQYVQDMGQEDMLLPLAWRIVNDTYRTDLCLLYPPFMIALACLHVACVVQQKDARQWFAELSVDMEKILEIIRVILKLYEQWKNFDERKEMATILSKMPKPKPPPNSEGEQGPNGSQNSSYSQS

[15] = system: HL-60; assay: Growth inhibition of human HL60 cells by alamar blue assay; format: functional
[16] = Growth inhibition of human SKNO1 cells by alamar blue assay; format: functional; conditions: SKNO-1
[17] = system: KG-1; assay: Growth inhibition of human KG1 cells by alamar blue assay; format: functional
[18] = Growth inhibition of human MOLM16 cells by alamar blue assay; format: functional
[19] = system: MV4-11; assay: Growth inhibition of human MV4-11 cells by alamar blue assay; format: functional
[20] = system: OCI-AML2; assay: Growth inhibition of human OCI-AML2 cells by alamar blue assay; format: functional
[21] = system: OCI-AML-3; assay: Growth inhibition of human OCI-AML3 cells by alamar blue assay; format: functional
[22] = Growth inhibition of human MOLM6 cells by alamar blue assay; format: functional
[23] = target: Cyclin-C/Cyclin-dependent kinase 19 (Homo sapiens, UniProt Q9BWU1); assay: Inhibition of CDK19/Cyclin-C (unknown origin) in presence of [gamma33P]ATP by radiometric method; format: protein-complex assay
Sequence of Cyclin-C/Cyclin-dependent kinase 19 (Q9BWU1 whole entry): as the sequence (Q9BWU1 whole entry) above
Sequence of Cyclin-C/Cyclin-dependent kinase 19 (P24863 whole entry, further chain): as the sequence (P24863 whole entry, further chain) above

[24] = target: Cyclin-dependent kinase 8 (Homo sapiens, UniProt P49336); assay: Inhibition of CDK8 (unknown origin)
Sequence of Cyclin-dependent kinase 8 (P49336 whole entry): as the sequence (P49336 whole entry) above

[25] = target: T1, Cyclin-dependent kinase 19; assay: Inhibition of CDK19 (unknown origin)
[26] = target: Cyclin-dependent kinase 8/Cyclin-C (Mus musculus, UniProt Q8R3L8); assay: Inhibition of CDK8/Cyclin-C in R848-stimulated mouse BMDC assessed as upregulation of IL-10 level; format: cell-based
Sequence of Cyclin-dependent kinase 8/Cyclin-C (Q8R3L8 whole entry): as the sequence (P49336 whole entry) above, with Q82L, D366E, N372T, S394G, T396A counted along it
Sequence of Cyclin-dependent kinase 8/Cyclin-C (Q62447 whole entry, further chain): as the sequence (P24863 whole entry, further chain) above, with A112T, M171V counted along it

[27] = target: T2, CDK8/Cyclin C; assay: Inhibition of CDK8/CCNC (unknown origin) using RBER-IRStide as substrate in presence of [gamma33P]ATP by radiometric method; format: protein-complex assay
[28] = target: Receptor-type tyrosine-protein kinase FLT3 (Homo sapiens) (UniProt P36888); assay: Inhibition of FLT3 (unknown origin) at 1 uM relative to control
Sequence of Receptor-type tyrosine-protein kinase FLT3 (Homo sapiens) (P36888 whole entry): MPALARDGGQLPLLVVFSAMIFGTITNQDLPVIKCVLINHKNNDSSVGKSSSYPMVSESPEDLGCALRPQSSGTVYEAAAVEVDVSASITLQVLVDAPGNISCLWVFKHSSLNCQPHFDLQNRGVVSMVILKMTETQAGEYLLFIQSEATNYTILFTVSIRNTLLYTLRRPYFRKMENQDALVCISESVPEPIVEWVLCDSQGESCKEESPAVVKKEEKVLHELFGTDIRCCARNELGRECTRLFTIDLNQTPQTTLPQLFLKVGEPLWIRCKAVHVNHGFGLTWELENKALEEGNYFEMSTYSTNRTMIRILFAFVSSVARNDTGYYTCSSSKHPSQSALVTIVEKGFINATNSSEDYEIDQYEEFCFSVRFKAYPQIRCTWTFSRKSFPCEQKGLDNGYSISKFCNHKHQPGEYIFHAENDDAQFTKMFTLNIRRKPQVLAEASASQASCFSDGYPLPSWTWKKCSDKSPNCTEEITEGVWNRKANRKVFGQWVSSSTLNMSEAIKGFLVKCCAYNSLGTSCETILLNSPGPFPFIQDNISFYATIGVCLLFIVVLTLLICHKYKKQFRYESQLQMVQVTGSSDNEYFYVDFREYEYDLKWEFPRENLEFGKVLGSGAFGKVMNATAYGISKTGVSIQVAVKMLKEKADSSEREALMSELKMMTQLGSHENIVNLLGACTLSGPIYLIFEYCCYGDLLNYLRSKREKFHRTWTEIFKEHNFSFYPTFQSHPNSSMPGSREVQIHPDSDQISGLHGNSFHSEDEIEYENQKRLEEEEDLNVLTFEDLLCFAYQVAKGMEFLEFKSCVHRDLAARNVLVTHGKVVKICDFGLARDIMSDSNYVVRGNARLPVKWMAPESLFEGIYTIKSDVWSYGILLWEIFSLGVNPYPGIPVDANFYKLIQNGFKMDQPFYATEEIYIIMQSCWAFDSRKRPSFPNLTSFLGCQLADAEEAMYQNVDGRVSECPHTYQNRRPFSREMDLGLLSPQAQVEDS

[29] = system: HCT-116; assay: cells; conditions: Homo sapiens
[30] = target: Mitogen-activated protein kinase kinase kinase kinase 2 (Homo sapiens) (UniProt Q12851); assay: Inhibition of MAP4K2 (unknown origin) at 2 uM relative to control
Sequence of Mitogen-activated protein kinase kinase kinase kinase 2 (Homo sapiens) (Q12851 whole entry): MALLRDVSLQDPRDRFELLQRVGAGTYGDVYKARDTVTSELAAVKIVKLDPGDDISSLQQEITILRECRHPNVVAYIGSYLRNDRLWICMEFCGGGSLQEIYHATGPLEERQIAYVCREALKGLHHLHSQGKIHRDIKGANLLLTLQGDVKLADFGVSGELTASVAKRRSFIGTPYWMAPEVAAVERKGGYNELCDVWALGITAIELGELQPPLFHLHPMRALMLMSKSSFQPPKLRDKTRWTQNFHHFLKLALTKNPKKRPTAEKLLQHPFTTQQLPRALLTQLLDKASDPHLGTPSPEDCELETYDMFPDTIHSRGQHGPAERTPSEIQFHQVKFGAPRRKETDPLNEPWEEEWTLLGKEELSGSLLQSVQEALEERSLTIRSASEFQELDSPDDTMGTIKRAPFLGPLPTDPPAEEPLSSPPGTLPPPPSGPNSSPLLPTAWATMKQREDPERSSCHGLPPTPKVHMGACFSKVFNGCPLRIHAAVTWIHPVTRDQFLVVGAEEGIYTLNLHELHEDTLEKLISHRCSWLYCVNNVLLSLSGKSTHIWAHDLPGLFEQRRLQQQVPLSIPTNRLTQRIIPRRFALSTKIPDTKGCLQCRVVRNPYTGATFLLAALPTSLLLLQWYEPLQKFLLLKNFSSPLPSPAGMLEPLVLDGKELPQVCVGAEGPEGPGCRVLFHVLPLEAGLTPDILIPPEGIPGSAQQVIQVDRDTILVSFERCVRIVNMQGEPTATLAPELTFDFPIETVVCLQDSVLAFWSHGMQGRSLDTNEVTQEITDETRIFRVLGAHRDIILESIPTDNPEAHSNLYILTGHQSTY

[31] = target: Mitogen-activated protein kinase kinase kinase 19 (Homo sapiens) (UniProt Q56UN5); assay: Inhibition of YSK4 (unknown origin) at 2 uM relative to control

SMILES: CN(C)[C@H]1C[C@@]23CC[C@@]4(O2)C(=CC[C@]2(C)[C@@H](c5ccc6ccncc6c5)CC[C@H]24)C=C3[C@@H](O)[C@@H]1O
inhibition in vivo at 0.16 mg/kg [1]: 70%
pIC50 [2]: 8.00
pIC50 [3]: 6.60
pIC50 [4]: 6.66
GI50 [5]: 1 nM
GI50 [6]: 3 nM
GI50 [7]: 4 nM
GI50 [8]: 5 nM
GI50 [9]: 6 nM
GI50 [10]: 7 nM
GI50 [11]: 9 nM
GI50 [12]: 360 nM
GI50 [13]: > 1000 nM

pIC50 [14]: 8.40
GI50 [15]: < 1000 nM
GI50 [19]: < 1000 nM
GI50 [20]: < 1000 nM
GI50 [21]: < 1000 nM
pIC50 [23]: 8.00
SMILES: Cc1c(Br)c(Br)c2c3c1nc(N1CCNCC1)n3CCC2 [SEL-120 FREE BASE]
GI50 [16]: < 1000 nM
GI50 [17]: < 1000 nM
GI50 [18]: < 1000 nM
GI50 [22]: < 1000 nM

pIC50 [24]: 6.30
pIC50 [25]: 4.52
pEC50 [26]: 5.85
SMILES: CC1CCc2nc(N)c(C#N)c(-c3cccnc3)c2C1 (stereo unspecified)

pIC50 [27]: 6.55
SMILES: N#Cc1ccc2ncnc(NCCc3ccccc3)c2c1

inhibition [28]: 74%
pIC50 [29]: < 5.00
SMILES: CCN1CCN(Cc2ccc(NC(=O)N[C@@H]3CCN(c4ccnc(NC)n4)C3)cc2C(F)(F)F)CC1

inhibition [30]: 69%
inhibition [31]: 59%
SMILES: CN1CCN(C(=O)c2ccc3cc(CCNc4ncnc5ccc(C#N)cc45)ccc3c2)CC1
